Bounds are passed on as bounds.

Assay [1] concerns the target Human α2δ-1 subunit of Cav2.2 calcium channel (Homo sapiens, UniProt P54289). Put plainly: Human α2δ-1 subunit of Cav2.2 calcium channel assay ([3H]-gabapentin binding). To be noted: binding to the α2δ-1 subunit of voltage-gated calcium channels expressed as Ki; + also covers inhibition between 1% and 50%. The method, boiled down: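 Displacement of 15 nM [3H]-gabapentin from human α2δ-1-enriched membranes (Hepes-KOH 10 mM, pH 7.4; 27 °C, 60 min) read by filter binding and radioactivity counting. Values are single-point % inhibition (1 or 10 μM) or five-point Ki; 10 μM pregabalin sets NSB.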

In assay [2] the target is T1, Human σ1 receptor (Homo sapiens, UniProt Q99720).
T1 construct: expressed in transfected cells; host or cells: HEK-293
Put plainly: Human σ1 receptor radioligand assay ([3H](+)-pentazocine binding, transfected HEK-293 membranes). To be noted: binding to σ1 receptor expressed as Ki; + also covers inhibition between 1% and 50%; read-out: σ-1 binding. The method, boiled down:
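Ki was derived from five test concentrations, or % inhibition was measured at a single 1 or 10 μM dose, against 5 nM [3H](+)-pentazocine. Incubation was 120 min at 37° C in 50 mM Tris-HCl pH 8 with 7 μg HEK-293 membranes, and 10 μM haloperidol set non-specific binding. Bound radioactivity was counted after filtration.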

Human α2δ-1 subunit of Cav2.2 calcium channel, sequence (P54289 25-1103): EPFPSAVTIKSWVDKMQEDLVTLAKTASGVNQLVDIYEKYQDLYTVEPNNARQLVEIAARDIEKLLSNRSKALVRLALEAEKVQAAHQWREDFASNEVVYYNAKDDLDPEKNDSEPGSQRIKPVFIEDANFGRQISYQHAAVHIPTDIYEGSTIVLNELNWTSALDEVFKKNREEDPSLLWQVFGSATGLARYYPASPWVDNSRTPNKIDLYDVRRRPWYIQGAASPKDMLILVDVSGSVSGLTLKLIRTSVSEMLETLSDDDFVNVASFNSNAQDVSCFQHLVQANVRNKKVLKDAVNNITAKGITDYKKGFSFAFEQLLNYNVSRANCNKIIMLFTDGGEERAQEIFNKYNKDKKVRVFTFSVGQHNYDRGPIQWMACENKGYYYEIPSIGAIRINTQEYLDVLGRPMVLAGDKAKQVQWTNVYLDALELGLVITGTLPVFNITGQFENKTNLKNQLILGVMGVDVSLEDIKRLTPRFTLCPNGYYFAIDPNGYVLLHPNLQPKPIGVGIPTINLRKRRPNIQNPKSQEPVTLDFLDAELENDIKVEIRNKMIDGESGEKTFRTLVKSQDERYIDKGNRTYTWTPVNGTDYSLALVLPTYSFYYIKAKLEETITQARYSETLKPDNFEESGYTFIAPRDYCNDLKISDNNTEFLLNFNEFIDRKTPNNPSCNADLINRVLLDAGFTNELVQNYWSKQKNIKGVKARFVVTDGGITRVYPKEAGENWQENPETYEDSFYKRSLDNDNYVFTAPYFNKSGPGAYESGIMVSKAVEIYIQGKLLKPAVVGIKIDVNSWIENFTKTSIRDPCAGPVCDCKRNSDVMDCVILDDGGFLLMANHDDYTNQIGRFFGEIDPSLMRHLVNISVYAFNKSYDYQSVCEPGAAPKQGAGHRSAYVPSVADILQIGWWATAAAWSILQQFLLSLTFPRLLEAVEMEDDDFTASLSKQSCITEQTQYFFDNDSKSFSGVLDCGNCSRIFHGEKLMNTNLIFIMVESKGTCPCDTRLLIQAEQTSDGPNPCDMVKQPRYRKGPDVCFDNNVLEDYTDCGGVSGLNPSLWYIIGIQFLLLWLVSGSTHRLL
T1 sequence (Q99720 whole entry): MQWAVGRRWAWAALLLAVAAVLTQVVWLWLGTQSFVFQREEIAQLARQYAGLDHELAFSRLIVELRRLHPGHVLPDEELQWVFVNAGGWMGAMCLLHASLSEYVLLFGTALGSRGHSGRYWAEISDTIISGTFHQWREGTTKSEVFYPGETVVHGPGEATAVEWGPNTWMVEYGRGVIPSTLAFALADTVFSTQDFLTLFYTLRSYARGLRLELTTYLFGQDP

With `Cc1nn2c([C@H]3CCCN(Cc4ccc(Cl)cc4)C3)ccnc2c1CN[C@@H](C)c1ccccc1` [Example 198, (S)—N-((7-((S)-1-(4-chlorobenzyl)piperidin-3-yl)-2-methylpyrazolo[1,5-a]pyrimidin-3-yl)methyl)-1-phenylethan-1-amine], the Ki in assay [1] and in assay [2] was below 500 nM in each case.

With `COc1nn2c(C3CCCN(Cc4ccc(Cl)cc4)C3)ccnc2c1CNCC1CCOCC1` (centres unmarked) [Example 189, 1-(7-(1-(4-Chlorobenzyl)piperidin-3-yl)-2-methoxypyrazolo[1,5-a]pyrimidin-3-yl)-N-((tetrahydro-2H-pyran-4-yl)methyl)methanamine], the Ki in assay [1] and in assay [2] was below 500 nM each time.

As for `CCc1cc2nccc(C3CCCN(Cc4ccccc4)C3)n2n1` (centres unmarked) [Example 4, 7-(1-Benzylpiperidin-3-yl)-2-ethylpyrazolo[1,5-a]pyrimidine], the Ki in assay [1] is 500 to 5000 nM; in assay [2], below 500 nM.

Consider `Cc1nn2c(C3CCCN(Cc4ccc(Cl)cc4)C3)ccnc2c1CNCC(F)(F)F` (centres unmarked) [Example 156, N-((7-(1-(4-Chlorobenzyl)piperidin-3-yl)-2-methylpyrazolo[1,5-a]pyrimidin-3-yl)methyl)-2,2,2-trifluoroethan-1-amine], for which the Ki in assay [1] was above 5000 nM; in assay [2] it was 500 to 1000 nM.

In the case of `Fc1ccccc1-c1cc2nccc(C3CCCN(Cc4ccccc4)C3)n2n1` (centres unmarked) [Example 14, 7-(1-Benzylpiperidin-3-yl)-2-(2-fluorophenyl)pyrazolo[1,5-a]pyrimidine], the Ki in assay [1] was in the range of 500 to 5000 nM; in assay [2], 500 to 1000 nM.

With `COc1ncccc1-c1c(C)nn2c(C3CCCN(Cc4ccccc4)C3)ccnc12` (centres unmarked) [Example 43, 7-(1-Benzylpiperidin-3-yl)-3-(2-methoxypyridin-3-yl)-2-methylpyrazolo[1,5-a]pyrimidine], the Ki in assay [1] was 500 to 5000 nM; in assay [2], above 1000 nM.

In the case of `CC(=O)Nc1nn2c(C3CCCN(Cc4ccccc4)C3)ccnc2c1C` (centres unmarked) [Example 9, N-(7-(1-Benzylpiperidin-3-yl)-3-methylpyrazolo[1,5-a]pyrimidin-2-yl)acetamide], the Ki in assay [1] was above 5000 nM; in assay [2], above 1000 nM.

For `Cc1nn2c(C3CCCN(Cc4ccc(Cl)c(Cl)c4)C3)ccnc2c1-c1ccncc1` (centres unmarked) [Example 123, 7-(1-(3,4-Dichlorobenzyl)piperidin-3-yl)-2-methyl-3-(pyridin-4-yl)pyrazolo[1,5-a]pyrimidine], the Ki was 500 to 5000 nM in assay [1] and above 1000 nM in assay [2].

Regarding `Cc1nn2c(C3CCCN(Cc4ccc(Cl)cc4)C3)ccnc2c1CN1CCCCC1` (centres unmarked) [Example 169, 7-(1-(4-Chlorobenzyl)piperidin-3-yl)-2-methyl-3-(piperidin-1-ylmethyl)pyrazolo[1,5-a]pyrimidine], the Ki in assay [1] was 500 to 5000 nM; in assay [2], below 500 nM.

`Cc1nn2c(C3CCCN(Cc4ccc(Cl)cc4)C3)ccnc2c1-c1cccc(C(=O)N(C)C)c1` (centres unmarked) [Example 128, 3-(7-(1-(4-Chlorobenzyl)piperidin-3-yl)-2-methylpyrazolo[1,5-a]pyrimidin-3-yl)-N,N-dimethylbenzamide]: the Ki was above 5000 nM in assay [1] and above 1000 nM in assay [2].

Take `Cc1nn2c(C3CCCN(Cc4ccc(Cl)cc4)C3)ccnc2c1CN1CCOCC1` (centres unmarked) [Example 165, 4-((7-(1-(4-Chlorobenzyl)piperidin-3-yl)-2-methylpyrazolo[1,5-a]pyrimidin-3-yl)methyl)morpholine]: the Ki in assay [1] was above 5000 nM; in assay [2], 500 to 1000 nM.

`Cc1nn2c([C@H]3CCCN(Cc4ccccc4)C3)ccnc2c1CNC[C@H]1CCC(=O)NC1` [Example 245, (R)-5-((((7-((S)-1-Benzylpiperidin-3-yl)-2-methylpyrazolo[1,5-a]pyrimidin-3-yl)methyl)amino)methyl)piperidin-2-one]: the Ki in assay [1] was 500 to 5000 nM; in assay [2], above 1000 nM.

In the case of `Cc1nn2c([C@H]3CCCN(Cc4ccc(Cl)cc4)C3)ccnc2c1CNC[C@@H]1CCOC(C)(C)C1` [Example 223], the Ki in assay [1] is above 5000 nM; in assay [2], below 500 nM.

These data come from patent US12617797B2, “Substituted pyrazolo [1,5-a]pyrimidines having multimodal activity against pain” (ESTEVE PHARMACEUTICALS, S.A., priority 2020, dated 2026).
